This note sets out measurements from patent US20220055989A1, “CONDENSED PYRROLES AS NOVEL BROMODOMAIN INHIBITORS” (ALBERT LUDWING UNIVERSITÄT FREIBURG, priority 2018, published 2022).

For orientation: Kd means the equilibrium constant for the complex coming apart.

The target in test [1] is T1, TAF1(2) (Homo sapiens, UniProt P21675).
T1 construct: FALZ, PBRM1-BD2, BPRM1-BDS, TAF1-BD2, TAF1L-BD2; host or cells: T7 phage grown in E. coli host derived from BL21
Description: Bromodomain assay % Ctrl determination TAF1(2). To be noted: lower numbers indicate a stronger binding. The procedure: (§1) Compounds that bind the bromodomain prevent its binding to the immobilized ligand thus reducing the amount of protein captured. […] Hits are identified by measuring the amount of bromodomain captured in test versus control samples. Bromodomain assays for % Ctrl determination: T7 phage strains displaying bromodomains were grown in parallel in 24-well blocks in an E. coli host derived from the BL21 strain. E. coli were grown to log-phase and infected with T7 phage from a frozen stock (multiplicity of infection=0.4) and incubated with shaking at 32° C. until lysis (90-150 minutes). The lysates were centrifuged (5,000×g) and filtered (0.2 μm) to remove cell debris. […] The liganded beads were blocked with excess biotin and washed with blocking buffer (SeaBlock (Pierce), 1% BSA, 0.05% Tween 20, 1 mM DTT) to remove unbound ligand and to reduce non-specific phage binding. […] Test compounds were prepared as 1000× stocks in 100% DMSO and subsequently diluted 1:25 in monoethylene glycol (MEG). The compounds were then diluted directly into the assays such that the final concentrations of DMSO and MEG were 0.1% and 2.4%, respectively. All reactions were performed in polypropylene 384-well plates in a final volume of 0.02 ml. […] The bromodomain concentration in the eluates was measured by qPCR. […]

Test [2] deals with T2, BRD3(2) (Homo sapiens, UniProt Q15059).
T2 construct: T7 phage strains displaying bromodomains were grown in parallel; made in house; host or cells: T7 phage grown in an E. coli host derived from the BL21 strain
T2 sequence (Q15059 306-415 limits assumed): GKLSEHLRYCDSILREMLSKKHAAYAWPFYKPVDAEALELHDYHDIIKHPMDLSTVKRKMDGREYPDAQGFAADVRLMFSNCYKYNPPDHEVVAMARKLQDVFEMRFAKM
Description: Bromodomain assay % Ctrl determination BRD3(2). As to conditions: lower numbers indicate a stronger binding. The protocol:
as §1

Test [3] addresses T3, BRPF1 (Homo sapiens, UniProt P55201).
T3 construct: T7 phage strains displaying bromodomains were grown; host or cells: T7 phage in E. coli derived from BL21
T3 sequence (P55201 628-732 limits assumed): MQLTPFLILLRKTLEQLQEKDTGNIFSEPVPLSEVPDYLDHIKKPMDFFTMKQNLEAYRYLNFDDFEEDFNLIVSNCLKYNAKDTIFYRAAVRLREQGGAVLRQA
Description: Bromodomain assay % Ctrl determination BRPF1. As to conditions: lower numbers indicate a stronger binding. The procedure:
as §1

For test [4], the target named is T4, CECR2 (Homo sapiens, UniProt Q9BXF3).
T4 construct: T7 phage strains displaying bromodomains were grown; host or cells: T7 phage in E. coli derived from BL21
T4 sequence (Q9BXF3 434-538 limits assumed): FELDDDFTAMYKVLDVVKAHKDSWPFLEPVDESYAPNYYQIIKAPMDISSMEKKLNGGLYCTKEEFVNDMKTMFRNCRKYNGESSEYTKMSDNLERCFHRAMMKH
Nature of the test: Bromodomain assay % Ctrl determination CECR2. To be noted: lower numbers indicate a stronger binding. The procedure: as §1

Test [5] deals with T5, BRD1 (Homo sapiens, UniProt O95696).
T5 construct: T7 phage strains displaying bromodomains were grown in parallel; made in house; host or cells: T7 phage grown in an E. coli host derived from the BL21 strain
T5 sequence (O95696 562-666 limits assumed): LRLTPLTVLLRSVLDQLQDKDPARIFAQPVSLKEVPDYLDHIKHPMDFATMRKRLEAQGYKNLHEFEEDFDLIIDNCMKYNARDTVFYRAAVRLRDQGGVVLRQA
Nature of the test: Bromodomain assay % Ctrl determination BRD1. As to conditions: lower numbers indicate a stronger binding. The protocol:
as §1

In test [6] the target is T6, SMARCA4 (Homo sapiens, UniProt P51532).
T6 construct: T7 phage strains displaying bromodomains were grown in parallel; host or cells: T7 phage grown in E. coli host derived from BL21
T6 sequence (P51532 1453-1564 limits assumed): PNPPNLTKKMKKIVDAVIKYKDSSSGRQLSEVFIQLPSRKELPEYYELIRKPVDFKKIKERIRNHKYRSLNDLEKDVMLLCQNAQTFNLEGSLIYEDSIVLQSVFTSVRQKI
Description: Bromodomain assay % Ctrl determination SMARCA4. To be noted: lower numbers indicate a stronger binding. The procedure: as §1

Test [7] addresses T7, GCN5L2 (Homo sapiens, UniProt Q92830).
T7 construct: T7 phage strains displaying bromodomains were grown in parallel; host or cells: T7 phage grown in E. coli host derived from BL21
Nature of the test: Bromodomain assay % Ctrl determination GCN5L2. To be noted: lower numbers indicate a stronger binding. The procedure:
as §1

The target of test [8] is T8, TAF1L(2) (Homo sapiens, UniProt Q8IZX4).
T8 construct: FALZ, PBRM1-BD2, BPRM1-BDS, TAF1-BD2, TAF1L-BD2; host or cells: T7 phage grown in E. coli host derived from BL21
T8 sequence (Q8IZX4 1517-1626 limits assumed): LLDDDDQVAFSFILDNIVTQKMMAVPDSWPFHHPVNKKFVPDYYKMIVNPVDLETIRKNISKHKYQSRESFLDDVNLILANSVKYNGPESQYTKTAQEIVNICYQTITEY
Nature of the test: BROMOscan Kd determination TAF1L(2). Format: binding. The protocol:
(§2) Bromodomain profiling was carried out on the basis of BROMOscan™. This platform accounted for the indirect determination of the dissociation constants between 19 bromodomains and the compound of formula (13), by binding competition against a reference immobilized ligand. Compounds that bind the bromodomain prevent its binding to the immobilized ligand thus reducing the amount of protein captured. […] Hits are identified by measuring the amount of bromodomain captured in test versus control samples. Bromodomain assays for Kd determination: T7 phage strains displaying bromodomains were grown in parallel in 24-well blocks in an E. coli host derived from the BL21 strain. E. coli were grown to log-phase and infected with T7 phage from a frozen stock (multiplicity of infection=0.4) and incubated with shaking at 32° C. until lysis (90-150 minutes). The lysates were centrifuged (5,000×g) and filtered (0.2 μm) to remove cell debris. […] Kds were determined using an 11-point 3-fold compound dilution series with one DMSO control point. […] The bromodomain concentration in the eluates was measured by qPCR. […] Most Kds were determined using a compound top concentration=10,000 nM. […] Binding Constants (Kds): Binding constants (Kds) were calculated with a standard dose-response curve using the Hill equation: The Hill Slope was set to −1. […]

For test [9], the target named is T9, BAZ2B (Homo sapiens, UniProt Q9UIF8).
T9 construct: T7 phage strains displaying bromodomains were grown in parallel; made in house; host or cells: T7 phage grown in an E. coli host derived from the BL21 strain
T9 sequence (Q9UIF8 2060-2164 limits assumed): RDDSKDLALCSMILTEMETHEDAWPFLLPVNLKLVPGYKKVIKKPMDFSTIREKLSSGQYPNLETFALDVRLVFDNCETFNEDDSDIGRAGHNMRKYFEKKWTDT
Nature of the test: BROMOscan Kd determination BAZ2B. Format: binding. The procedure: as §2

The target of test [10] is T10, FALZ (Homo sapiens, UniProt Q12830).
T10 construct: T7 phage strains displaying bromodomains were grown in parallel; host or cells: T7 phage grown in E. coli host derived from BL21
Description: BROMOscan Kd determination FALZ. Format: binding. The procedure:
as §2

Test [11] addresses T11, EP300 (Homo sapiens, UniProt Q09472).
T11 construct: T7 phage strains displaying bromodomains were grown; host or cells: T7 phage in E. coli derived from BL21
T11 sequence (Q09472 1049-1156 limits assumed): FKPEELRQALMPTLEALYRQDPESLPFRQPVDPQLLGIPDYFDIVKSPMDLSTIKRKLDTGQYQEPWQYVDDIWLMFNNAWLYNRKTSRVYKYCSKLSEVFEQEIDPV
Nature of the test: BROMOscan Kd determination EP300. Format: binding. The protocol:
Bromodomain profiling was carried out on the basis of BROMOscan™. This platform accounted for the indirect determination of the dissociation constants between 19 bromodomains and the compound of formula (13), by binding competition against a reference immobilized ligand. Compounds that bind the bromodomain prevent its binding to the immobilized ligand thus reducing the amount of protein captured. […] Hits are identified by measuring the amount of bromodomain captured in test versus control samples. Bromodomain assays for Kd determination: T7 phage strains displaying bromodomains were grown in parallel in 24-well blocks in an E. coli host derived from the BL21 strain. E. coli were grown to log-phase and infected with T7 phage from a frozen stock (multiplicity of infection=0.4) and incubated with shaking at 32° C. until lysis (90-150 minutes). The lysates were centrifuged (5,000×g) and filtered (0.2 μm) to remove cell debris. […] The liganded beads were blocked with excess biotin and washed with blocking buffer (SeaBlock (Pierce), 1% BSA, 0.05% Tween 20, 1 mM DTT) to remove unbound ligand and to reduce non-specific phage binding. […] Test compounds were prepared as 1000× stocks in 100% DMSO. Kds were determined using an 11-point 3-fold compound dilution series with one DMSO control point. All compounds for Kd measurements are distributed by acoustic transfer (non-contact dispensing) in 100% DMSO. The compounds were then diluted directly into the assays such that the final concentration of DMSO was 0.09%. All reactions performed in polypropylene 384-well plates. Each was a final volume of 0.02 ml. […] The bromodomain concentration in the eluates was measured by qPCR. […] All compounds for Kd measurements are distributed by acoustic transfer (non-contact dispensing) in 100% DMSO. The compounds were then diluted directly into the assays such that the final concentration of DMSO was 0.09%. Most Kds were determined using a compound top concentration=10,000 nM. If the initial Kd determined was <0.169 nM (the lowest concentration tested), the measurement was repeated with a serial dilution starting at a lower top concentration. Binding Constants (Kds): Binding constants (Kds) were calculated with a standard dose-response curve using the Hill equation: The Hill Slope was set to −1. Curves were fitted using a non-linear least square fit with the Levenberg-Marquardt algorithm.

The target in test [12] is T12, TRIM33(PHD, Bromo.) (Homo sapiens, UniProt Q9UPN9).
T12 construct: TRIM33(PHD, Bromo.); the phage DNA is read by qPCR
T12 sequence (Q9UPN9 whole entry): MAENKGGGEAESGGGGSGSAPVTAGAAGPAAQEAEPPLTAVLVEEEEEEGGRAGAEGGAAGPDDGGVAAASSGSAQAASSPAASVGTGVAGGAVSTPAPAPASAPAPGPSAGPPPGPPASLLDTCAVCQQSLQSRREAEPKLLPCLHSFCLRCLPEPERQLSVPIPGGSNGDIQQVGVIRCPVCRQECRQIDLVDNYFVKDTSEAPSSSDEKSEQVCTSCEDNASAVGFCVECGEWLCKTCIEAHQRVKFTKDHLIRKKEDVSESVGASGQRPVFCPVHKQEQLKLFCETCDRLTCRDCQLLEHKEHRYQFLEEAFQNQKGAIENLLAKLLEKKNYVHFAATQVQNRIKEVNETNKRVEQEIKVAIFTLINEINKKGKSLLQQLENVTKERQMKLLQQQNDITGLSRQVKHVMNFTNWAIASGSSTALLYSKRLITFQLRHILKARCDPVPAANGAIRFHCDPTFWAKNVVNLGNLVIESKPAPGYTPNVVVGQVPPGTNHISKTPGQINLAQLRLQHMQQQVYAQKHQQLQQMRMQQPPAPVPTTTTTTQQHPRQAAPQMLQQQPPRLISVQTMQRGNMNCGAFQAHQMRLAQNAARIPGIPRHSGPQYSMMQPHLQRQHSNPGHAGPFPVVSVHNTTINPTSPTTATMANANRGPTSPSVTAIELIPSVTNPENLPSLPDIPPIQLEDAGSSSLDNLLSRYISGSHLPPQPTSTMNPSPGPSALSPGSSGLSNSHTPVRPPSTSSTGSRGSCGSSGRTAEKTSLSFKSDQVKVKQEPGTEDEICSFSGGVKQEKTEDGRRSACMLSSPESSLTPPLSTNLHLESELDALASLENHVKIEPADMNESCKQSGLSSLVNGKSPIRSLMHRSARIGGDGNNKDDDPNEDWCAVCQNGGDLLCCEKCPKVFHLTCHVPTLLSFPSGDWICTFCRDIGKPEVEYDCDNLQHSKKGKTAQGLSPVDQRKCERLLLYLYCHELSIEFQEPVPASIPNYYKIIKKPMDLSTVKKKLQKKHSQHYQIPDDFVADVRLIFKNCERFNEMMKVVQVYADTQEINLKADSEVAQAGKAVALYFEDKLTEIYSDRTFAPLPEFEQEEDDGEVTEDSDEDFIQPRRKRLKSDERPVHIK
Description: BROMOscan Kd determination TRIM33(PHD, Bromo.). Format: binding. The procedure: as §2

Test [13] concerns the target T13, BRD4(short-iso.) (Homo sapiens, UniProt O60885).
T13 construct: host or cells: T7 phage in E. coli derived from BL21
Description: BROMOscan Kd determination BRD4(short-iso.). Format: binding. The protocol:
as §2

The target of test [14] is T14, BRD3(1, 2) (Homo sapiens, UniProt Q15059).
T14 construct: T7 phage strains displaying bromodomains were grown in parallel; made in house; host or cells: T7 phage grown in an E. coli host derived from the BL21 strain
T14 sequence (Q15059 24-416 limits assumed): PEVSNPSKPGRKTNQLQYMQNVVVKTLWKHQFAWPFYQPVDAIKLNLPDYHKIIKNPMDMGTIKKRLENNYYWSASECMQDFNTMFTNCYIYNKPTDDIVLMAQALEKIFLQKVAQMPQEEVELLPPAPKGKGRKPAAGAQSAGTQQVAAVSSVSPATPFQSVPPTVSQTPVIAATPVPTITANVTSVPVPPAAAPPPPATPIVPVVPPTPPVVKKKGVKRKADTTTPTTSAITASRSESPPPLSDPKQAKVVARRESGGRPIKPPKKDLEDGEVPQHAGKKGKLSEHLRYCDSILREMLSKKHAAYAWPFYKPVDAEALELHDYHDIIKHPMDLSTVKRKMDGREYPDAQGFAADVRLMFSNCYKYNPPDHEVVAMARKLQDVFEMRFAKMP
Nature of the test: BROMOscan Kd determination BRD3(1, 2). Format: binding. The protocol: as §2

For test [15], the target named is T6, SMARCA4. Nature of the test: BROMOscan Kd determination SMARCA4. Format: binding. The protocol:
as §2

T1 sequence (P21675 1519-1628 limits assumed): as the sequence (Q8IZX4 1517-1626 limits assumed) above, with M46V, V51M, I102V, I107L counted along it
T7 sequence (Q92830 728-832 limits assumed): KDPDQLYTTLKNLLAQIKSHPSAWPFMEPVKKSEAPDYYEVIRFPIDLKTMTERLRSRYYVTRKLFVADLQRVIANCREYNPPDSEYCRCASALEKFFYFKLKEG

As to `COc1ccc(S(=O)(=O)N2CCOCC2)cc1NC(=O)c1[nH]c(C)c2c1CCCCC2=O` [Compound 13, N-(2-methoxy-5-(morpholinosulfonyl)phenyl)-3-methyl-4-oxo-2,4,5,6,7,8-hexahydrocyclohepta[c]pyrrole-1-carboxamide], the “% Ctrl @ 10 000 nM TAF1(2)” value in [1] worked out at 7.4 % Ctrl. Besides, in test [2], the “% Ctrl @ 10 000 nM BRD3(2)” value was determined as 0 % Ctrl. For the same compound, the “% Ctrl @ 10 000 nM BRPF1” value in test [3] was determined as 0.15 % Ctrl. For the same compound, the “% Ctrl @ 10 000 nM CECR2” value in test [4] is given as 1.3 % Ctrl. In addition, in [5], the “% Ctrl @ 10 000 nM BRD1” value is 26 % Ctrl. The “% Ctrl @ 10 000 nM SMARCA4” value in test [6] turned out to be 71 % Ctrl. For the same compound, the “% Ctrl @ 10 000 nM GCN5L2” value in [7] is given as 44 % Ctrl.

Take `Cc1[nH]c(-c2cc(N)ccc2Cl)c2c1C(=O)CCCC2` [Compound 23]: the equilibrium dissociation constant (Kd) in test [8] amounted to 6800 nM; in test [9], 1800 nM; in [10], 2600 nM; in [11], 1200 nM; in test [12] it was 7700 nM; in test [13] it was 180 nM. Further, the Kd in test [14] is 100 nM; in test [15], greater than 10000 nM.
